Source: US20190350944A1, “NEUROACTIVE STEROID SOLUTIONS AND THEIR METHODS OF USE” (Sage Therapeutics, Inc., priority 2015, published 2019)

Assay: Degradation pathway for allopregnanolone in SBECD formulations
Format: physicochemical
From the text: FIG. 1 summarizes the two major degradation pathways found for allopregnanolone in SBECD formulations.

CC(=O)[C@H]1CC[C@H]2[C@@H]3CC[C@H]4C[C@H](O)CC[C@]4(C)[C@H]3CC[C@]12C [allopregnanolone, 3 alpha-hydroxy-5 alpha-pregnan-20-one]
major degradation pathway (pH of ~6 or less): epimerization of allopregnanolone to compound 1269 | major degradation pathway (pH of ~6 or more): oxidation of allopregnanolone to compound 136
